Measured values from ChEMBL document CHEMBL1201862, “PubChem BioAssay data set” (2004).
Active and inactive are the calls of the source.

How the values were obtained:
Major prion protein = Major prion protein (Homo sapiens, UniProt P04156); assay type: functional, cell-based
[1] = Luminescence Cell-Based Dose Confirmation HTS to Identify Activators of 5'UTR Stem-Loop Driven Alpha-Synuclein mRNA Translation in H4 Neuroglioblastoma Cells. [Related pubchem assays: 1829 (Project Summary), 1814 (Primary HTS)]; assay type: functional
[2] = toxicity toward HEK293 cells – cell-based, dry powder samples, cytotoxicity control, dose response (AID 720567); assay type: functional
[3] = Luminescence Cell-Based Dose Response HTS to Identify Activators of Luciferase Translation or Activity in H4 […] Cells. [Related pubchem assays: 1829 (Project Summary), 1814 (Primary HTS)]; assay type: functional
H4 = experiment: Luminescence Cell-Based Dose Response HTS to Identify Activators of 5'UTR Stem-Loop Driven Prion Protein mRNA Translation in H4 Neuroglioblastoma Cells. [Related pubchem assays: 1829 (Project Summary), 1814 (Primary HTS)]; assay type: functional; conditions: Homo sapiens
Paired box protein Pax-8 = Paired box protein Pax-8 (Homo sapiens, UniProt Q06710); experiment: PAX8 transcriptional activity inhibition in RMG-I – RMG-I cells, luciferase, cherry-pick, dose response (AID 687027); assay type: functional, cell-based;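 note: luciferase reporter driven by Pax8 target thyroperoxidase promoter measured by SteadyGlo luminescence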
[4] = OVCAR8 cell viability loss – plate reader, dry powder samples, PAX8 project, dose response (AID 743197); assay type: functional, cell-based; conditions: OVCAR-8
[5] = OVCAR-3 cell viability loss – plate reader, dry powder samples, PAX8 inhibitor project, dose response (AID 743044); assay type: functional, cell-based
[6] = IGROV1 cell killing – plate reader, dry powder samples, PAX8 inhibitor project, dose response (AID 743043); assay type: functional, cell-based; conditions: IGROV-1
[7] = general mammalian cell viability loss – inhibitor set, cherry-pick, set 2, cytotoxicity control for miR-122 modulator project, dose response (AID 720697); assay type: functional, cell-based
[8] = ATP-based viability loss in HeLa cells – cell-based, CellTiter-Glo luminescence, dry powder, set 2, cytotoxicity control, dose response (AID 720593); assay type: functional
[9] = target: Heat shock protein HSP 90-alpha (Homo sapiens, UniProt P07900); assay type: functional, organism-based
[10] = ATP-based viability loss in HEK293T cells – cell-based, CellTiter-Glo luminescence, dry powder, set 2, cytotoxicity control, dose response (AID 720595); assay type: functional; conditions: HEK293
[11] = toxicity toward immortalized ovarian surface epithelium – cell-based, plate reader, dry powder samples, cytotoxicity control for PAX8 inhibitor project, dose response (AID 743045); assay type: functional
[12] = A2780 cell killing – plate reader, dry powder samples, cytotoxicity control, dose response (AID 743046); assay type: functional, cell-based
[13] = inhibition of Env-driven cell fusion – HIV entry, plate reader, dry powder, dose response (AID 687023); assay type: functional, cell-based
Phospholipase A2 = Phospholipase A2 (Homo sapiens, UniProt P04054); assay type: functional;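 note: confirmatory dose-response counterscreen on phospholipase A2, testing hits that came from an ultra-high-throughput screen for ATG4B inhibitors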
[14] = Luminescence Cell-Based Dose Confirmation to Identify Activators of 5'UTR Stem-Loop Driven Alpha-Synuclein mRNA Translation in H4 Neuroglioblastoma Cells. [Related pubchem assays: 1829 (Project Summary), 1814 (Primary HTS)]; assay type: functional
[15] = Luminescence Cell-Based Dose Response to Identify Activators of 5'UTR Stem-Loop Driven Prion Protein mRNA Translation in H4-C Neuroglioblastoma Cells. [Related pubchem assays: 1829 (Project Summary), 1814 (Primary HTS)]; assay type: functional
Cysteine protease ATG4B = target: T1, Cysteine protease ATG4B (Homo sapiens, UniProt Q9Y4P1); assay type: functional;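 note: Fluorescence-based dose-response confirmation assay measuring inhibition of ATG4B activity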
T1 sequence (Q9Y4P1 whole entry): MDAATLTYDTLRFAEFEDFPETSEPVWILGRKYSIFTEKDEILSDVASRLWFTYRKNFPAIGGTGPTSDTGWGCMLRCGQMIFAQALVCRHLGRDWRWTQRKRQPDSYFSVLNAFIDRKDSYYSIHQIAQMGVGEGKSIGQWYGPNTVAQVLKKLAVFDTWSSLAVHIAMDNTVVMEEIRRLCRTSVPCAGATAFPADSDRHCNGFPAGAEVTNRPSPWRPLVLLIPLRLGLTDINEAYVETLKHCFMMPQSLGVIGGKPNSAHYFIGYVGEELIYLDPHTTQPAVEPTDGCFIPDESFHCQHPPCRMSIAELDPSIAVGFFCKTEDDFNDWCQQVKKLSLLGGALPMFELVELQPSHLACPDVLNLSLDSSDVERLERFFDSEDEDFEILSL

[16] = target: Fructose-bisphosphate aldolase (Mycobacterium tuberculosis, UniProt P9WQA3); experiment: Fluorescence-based biochemical high throughput dose response assay for inhibitors of the fructose-bisphosphate aldolase (FBA) of M. tuberculosis.; assay type: functional
[17] = Luminescence Cell-Based Dose Response to Identify Activators of Luciferase Translation or Activity in H4-C Neuroglioblastoma Cells. [Related pubchem assays: 1829 (Project Summary), 1814 (Primary HTS)]; assay type: functional
Protein skinhead-1 = target: T2, Protein skinhead-1 (Caenorhabditis elegans, UniProt P34707); assay type: functional
T2 sequence (P34707 whole entry): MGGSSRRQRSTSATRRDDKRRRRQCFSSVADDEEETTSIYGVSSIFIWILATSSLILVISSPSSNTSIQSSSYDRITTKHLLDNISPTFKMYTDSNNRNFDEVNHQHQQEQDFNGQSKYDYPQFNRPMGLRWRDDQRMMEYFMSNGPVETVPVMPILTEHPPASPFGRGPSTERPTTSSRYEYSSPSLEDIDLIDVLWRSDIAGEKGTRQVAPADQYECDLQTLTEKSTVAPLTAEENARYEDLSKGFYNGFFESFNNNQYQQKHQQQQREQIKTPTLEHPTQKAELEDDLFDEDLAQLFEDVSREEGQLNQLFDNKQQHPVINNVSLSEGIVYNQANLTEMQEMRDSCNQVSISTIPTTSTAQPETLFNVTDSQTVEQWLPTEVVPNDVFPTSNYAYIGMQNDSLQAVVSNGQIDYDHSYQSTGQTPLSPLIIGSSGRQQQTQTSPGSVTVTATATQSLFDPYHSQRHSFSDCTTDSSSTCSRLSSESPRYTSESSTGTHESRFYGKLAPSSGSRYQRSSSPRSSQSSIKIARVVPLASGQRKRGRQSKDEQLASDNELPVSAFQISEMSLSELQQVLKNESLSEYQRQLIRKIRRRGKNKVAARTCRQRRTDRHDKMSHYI

[18] = anti-trypanosomal activity in BESM host cells – imaging, CA-I/72 strain, bovine embryo skeletal muscle, dry powder, dose response (AID 651885); assay type: functional, cell-based
[19] = Trypanosoma cruzi replication inhibitors in host cells – cell-based, plate reader, dry powder samples, dose response (AID 651845); assay type: functional
[20] = T. cruzi growth inhibition in host cells, dose response, cell-based, plate reader, dry powder, set 2 (AID 652275); assay type: functional
[21] = fluconazole-exposed Candida albicans growth modulators – fluorescence, retest, confirmation (AID 2467); assay type: functional, cell-based
Albumin = Albumin (Bos taurus, UniProt P02769); experiment: Counterscreen for inhibitors of T-cell receptor (TCR)-CD3 interaction: Fluorescence-based biochemical high throughput dose response assay to identify inhibitors of T-cell receptor (TCR)-CD3 interaction using a TAMRA-labeled BSA probe.; assay type: functional
[22] = NIH-3T3 fibroblast cytotoxicity, dose response, cytotoxicity control, cell-based, fluorescence, Alamar Blue, secondary assay (AID 2327); assay type: functional;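 note: NIH-3T3 mouse fibroblasts cultured with fluconazole at 8 µg/mL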
[23] = blockers of FN fibrillogenesis by fibroblasts – AH1F cells, Alexa488-FN fluorescence, cherry-picks, dose response (AID 1035475); assay type: functional, cell-based
[24] = viability loss in HEK293 kidney cells – cell-based, cherry-picks, set 5, cytotoxicity control, dose response (AID 1053117); assay type: functional
[25] = viability loss in HepG2 hepatoma cells – cell-based, cherry-picks, set 5, cytotoxicity control, dose response (AID 1053118); assay type: functional
[26] = growth inhibition of replicating M. tuberculosis, dose response, counter-screen, dry powder, IC90 (AID 651617); assay type: functional; conditions: Mycobacterium tuberculosis
[27] = inhibitors of non-replicating M. tuberculosis, dose response, luciferase, dry powder (AID 651620); assay type: functional; conditions: Mycobacterium tuberculosis
[28] = inhibitors of non-replicating M. tuberculosis, dose response, luciferase, dry powder (AID 651619); assay type: functional; conditions: Mycobacterium tuberculosis
[29] = HeLa cell viability loss – plate reader, dry powder, cytotoxicity control, dose response (AID 651946); assay type: functional, cell-based

Cc1cccc2c(=O)c(-c3ccc4c(c3)OCO4)c(NC(=O)c3ccco3)oc12
IC50 (Major prion protein): 9.57 µM (active)
IC50 (cells): > 138 µM (inactive)

COC(=O)c1cn(C(=O)c2ccc(OC)cc2)c2ccccc12
EC50 [1]: > 120 µM (not active)
AC50 [2]: > 30 µM (inactive)
EC50 [3]: 9.72 µM (active)
EC50 (H4): > 120 µM (not active)

C[C@H]1CCCCO[C@H](CN(C)Cc2ccc(C(F)(F)F)cc2)[C@@H](C)CN([C@@H](C)CO)C(=O)c2cc(NC(=O)Cc3ccccc3)ccc2O1
AC50 (Paired box protein Pax-8): 7.6 µM (active)
AC50 [4]: 53 µM (active)
AC50 [5]: 29.7 µM (active)
AC50 [6]: 31.9 µM (active)

CCCNC(=O)Nc1ccc2c(c1)C(=O)N(C)[C@@H]1CC[C@@H](CC(=O)NCC3CCCCC3)O[C@@H]1CO2
AC50 [7]: 0.456 µM (active)

O=C(CSc1ccc(-c2ccccn2)nn1)Nc1ccccc1
AC50 [8]: > 52 µM (inactive)
AC50 [9]: 35.3 µM (active)
AC50 [10]: 25.8 µM (active)

COc1ccc(-c2ccc3c(c2)[C@@H]2[C@@H](CCN2C(=O)NC2CCCCC2)[C@H](CO)N3C)cc1
AC50 [11]: 46.8 µM (active)
AC50 (Paired box protein Pax-8): 10.7 µM (active)
AC50 [4]: > 60 µM (inactive)
AC50 [5]: 49.5 µM (active)
AC50 [12]: 32.8 µM (active)

CCOc1ccc(OCC)c(S(=O)(=O)NCc2ccncc2)c1
AC50 [13]: > 70 µM (inactive)

COc1ccc2c(c1OC)C(=O)OC2Nc1nc(-c2ccc(-c3ccccc3)cc2)cs1 (stereo unspecified)
IC50 (Phospholipase A2): 17.1 µM (active)
EC50 [14]: 0.396 µM (active)
EC50 [15]: 0.254 µM (active)
IC50 (Cysteine protease ATG4B): 8.28 µM (active)
IC50 [16]: 6.08 µM (active)
EC50 [3]: < 0.1 µM (active)
EC50 [17]: 0.284 µM (active)
IC50 (Protein skinhead-1): 18.7 µM (active)

C[C@@H]1CN([C@@H](C)CO)C(=O)c2cccc(NC(=O)c3ccncc3)c2O[C@H]1CN(C)Cc1ccc2c(c1)OCO2
IC50 [18]: 0.0565 µM (active)
AC50 [19]: 0.0571 µM (active)
AC50 [20]: 0.017 µM (active)

COc1ccc(NC(=O)NNC(=O)c2cc3ccccc3cc2O)cc1
EC50 [21]: > 38 µM (not active)
IC50 (Albumin): > 94.1 µM (inactive)
EC50 [22]: > 160 µM (inactive)

C[C@H](CO)N1C[C@H](C)[C@H](CN(C)Cc2ccc(-c3ccccc3)cc2)Oc2ccc(NC(=O)CCCN(C)C)cc2C1=O
AC50 [23]: 30.8 µM (active)
AC50 [24]: 12.7 µM (active)
AC50 [25]: 11.8 µM (active)

[O-][S+](Cc1ccccc1)c1nnc(-c2ccccc2)o1 (stereo unspecified)
IC90 [26]: 31 µM (active)
IC90 [27]: 1 µM (active)
IC90 [28]: 1 µM (active)
AC50 [29]: 32.2 µM (active)
